A word on the half-life: it is how long it takes for the measured level to halve. A higher half-life goes with slow decline. In general, Tmax refers to the time at which the peak concentration occurs. Broadly, the Cmax is the peak of the concentration-time curve. By IC50 is commonly meant the concentration that gives 50% inhibition. A word on the EC50: it is the concentration that produces a half-maximal response. The CC50 is the concentration that lowers cell viability or growth by half.

The test system of data set [1] is Vero E6 cells. Briefly: Cytotoxicity assay. Type of data set: cell-based, African green monkey. The conditions noted are these: 72 h, CCK-8 assay. (Tetrazolium dyes change colour on reduction, which living cells bring about.)
Data set [2] deals with PEDV. Description: Anti-PEDV activity assay, viral loads. It is filed as cell-based. The conditions noted are these: for concentration that completely inhibited PEDV replication: Vero E6 cells, PEDV 0.01 MOI, 48 h post infection, qRT-PCR and TCID50.
A short description of data set [3]: Pharmacokinetics study of RDV-N in ICR mice. It is filed as in vivo.
Data set [4] has as its system feline infectious peritonitis virus (FIPV). The conditions noted are these: cats, subcutaneous, 5 mg/kg or 2 mg/kg; ref Murphy et al. [2018]; cited from earlier work.
For data set [5], the system named is PEDV spike protein. Description: Indirect immuno-fluorescence assay. It is filed as cell-based, porcine epidemic diarrhea virus, variant strain SDSX16. The conditions noted are these: 0.2 μmol/L, 48 h, Vero E6 cells.
In data set [6] the test system is PEDV. Briefly: Anti-PEDV activity assay, PEDV-induced cytopathic effect. It is filed as cell-based. The conditions noted are these: Vero E6 cells, PEDV 0.01 MOI, until virus control showed complete CPE. On the technique in general: Protection from cytopathic effect is a common read-out in antiviral testing.
Data set [7] is described as follows: Water solubility and lipophilicity. It is filed as physicochemical.
For data set [8], the system named is PEDV 3CL^pro. The conditions noted are these: PEDV 3CLpro; ref Ye et al. [2020]; cited from earlier work.
Data set [9] has as its system PDCoV. The conditions noted are these: ref Brown et al. [2019]; cited from earlier work.
Data set [10] concerns human cell lines and primary cells. The conditions noted are these: cited from earlier work.

Consider `N#C[C@@]1(c2ccc3c(N)ncnn23)O[C@H](CO)[C@@H](O)[C@H]1O` [RDV-N], for which the “maximal non-toxic concentration (MNTC)” value in [1] stood at 125 µmol/L. Moreover, in data set [2] (72 h post infection, qRT-PCR), the “fold more potent than NHC (EC50)” value is recorded as 3. The “concentration that completely inhibited PEDV replication” value in data set [2] worked out at 2.0 µmol/L. In data set [3] (male, ICR, mouse, plasma, iv, 25 mg/kg), this molecule had a half-life of 1.02 h. The molecule further showed a half-life in data set [3] (male, ICR, mouse, plasma, po, 50 mg/kg) of 1.2 h. Also, the Tmax in data set [3] (male, ICR, mouse, plasma, po, 50 mg/kg, Tmax, mice) was at most 1 h. Also, the AUClast in [3] (mice, IV, 25 mg/kg) is listed as 14,513 h × ng/mL. In data set [3] (mice, PO, 50 mg/kg), this molecule yielded an AUClast of 4556 ng·h/mL and a Cmax of 1826 ng/mL. Also, the cure rate in [4] is on record as 100%. The “fluorescence intensity (viral protein expression)” value in data set [5] is listed as “significantly decreased”. Besides, the “concentration at which PEDV-induced CPE was obviously blocked” value in [6] was determined as 0.2 µmol/L. Also, in data set [7], the lipophilicity result was “low lipophilicity” and the water solubility result is listed as “poor water solubility”.
For the molecule GC376, in [8], the IC50 is 1110 nM.
Take `CCC(CC)COC(=O)[C@H](C)N[P@](=O)(OC[C@H]1O[C@@](C#N)(c2ccc3c(N)ncnn23)[C@H](O)[C@@H]1O)Oc1ccccc1` [RDV, remdesivir]: in [1], the “maximal non-toxic concentration (MNTC)” value was determined as 125 µmol/L. Also, the “concentration that completely inhibited PEDV replication” value in [2] turned out to be 7.8 µmol/L. The EC50 in data set [9] was 20 nM. Moreover, the CC50 in data set [10] is 1700 to 15000 nM. In addition, the “concentration at which PEDV-induced CPE was obviously blocked” value in data set [6] amounted to 0.5 µmol/L.

The record behind these values is publication PMC7983969 (Virologica Sinica, 2021).
